Test results published in ChEMBL document CHEMBL1201862, “PubChem BioAssay data set” (2004).
The source made the active and inactive calls.

Key:
Streptococcus = assay: Group A Streptococcus viability loss, dose response, counter-screen for streptokinase expression inhibitor project, luminescence, BacTiterGlo (AID 1915); format: functional, organism-based;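 further: potency for reduction of bacterial viability or growth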
[1] = test system: Streptococcus sp. 'group A'; assay: growth inhibition of control SK(-) GAS strain, dose response, counter-screen for streptokinase expression inhibitor project, luminescence, kanamycin, BacTiterGlo, confirmation (AID 1900); format: functional, organism-based
[2] = target: Heat shock protein HSP 90-alpha (Homo sapiens, UniProt P07900); format: functional, organism-based
[3] = target: T1, Rac GTPase-activating protein 1 (Homo sapiens, UniProt Q9H0H5); assay: MgcRacGAP GTPase-activating activity inhibitors, confirmation, biochemical, ADP Hunter fluorescence, primary and confirmatory (AID 624330); format: functional
T1 sequence (Q9H0H5 whole entry): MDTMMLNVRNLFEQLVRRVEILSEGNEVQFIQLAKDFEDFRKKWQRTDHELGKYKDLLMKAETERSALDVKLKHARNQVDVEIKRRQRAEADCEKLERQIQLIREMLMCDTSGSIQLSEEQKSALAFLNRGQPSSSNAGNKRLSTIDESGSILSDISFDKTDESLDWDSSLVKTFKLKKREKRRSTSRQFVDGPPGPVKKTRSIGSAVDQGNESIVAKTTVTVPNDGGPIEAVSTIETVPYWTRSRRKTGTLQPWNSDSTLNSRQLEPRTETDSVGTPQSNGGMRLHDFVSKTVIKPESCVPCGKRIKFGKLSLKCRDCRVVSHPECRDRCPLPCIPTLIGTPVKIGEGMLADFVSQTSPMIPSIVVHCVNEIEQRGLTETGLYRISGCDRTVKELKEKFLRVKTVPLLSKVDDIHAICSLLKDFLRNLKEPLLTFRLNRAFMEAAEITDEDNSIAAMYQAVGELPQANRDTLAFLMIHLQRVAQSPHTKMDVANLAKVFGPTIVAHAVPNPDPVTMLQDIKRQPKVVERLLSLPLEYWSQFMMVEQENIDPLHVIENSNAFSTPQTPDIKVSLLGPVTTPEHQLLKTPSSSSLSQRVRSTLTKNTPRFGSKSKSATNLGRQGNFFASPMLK

[4] = HeLa cell cytotoxicity, dose response, cytotoxicity control for MgcRacGAP inhibitor project (AID 624300); format: functional
[5] = target: T2, DNA repair and recombination protein RAD54-like (Homo sapiens, UniProt Q92698); assay: inhibitors of human RAD54 branch migration, confirmation, biochemical, fluorescence, cherry-picked samples, dose series (AID 651657); format: functional
T2 sequence (Q92698 whole entry): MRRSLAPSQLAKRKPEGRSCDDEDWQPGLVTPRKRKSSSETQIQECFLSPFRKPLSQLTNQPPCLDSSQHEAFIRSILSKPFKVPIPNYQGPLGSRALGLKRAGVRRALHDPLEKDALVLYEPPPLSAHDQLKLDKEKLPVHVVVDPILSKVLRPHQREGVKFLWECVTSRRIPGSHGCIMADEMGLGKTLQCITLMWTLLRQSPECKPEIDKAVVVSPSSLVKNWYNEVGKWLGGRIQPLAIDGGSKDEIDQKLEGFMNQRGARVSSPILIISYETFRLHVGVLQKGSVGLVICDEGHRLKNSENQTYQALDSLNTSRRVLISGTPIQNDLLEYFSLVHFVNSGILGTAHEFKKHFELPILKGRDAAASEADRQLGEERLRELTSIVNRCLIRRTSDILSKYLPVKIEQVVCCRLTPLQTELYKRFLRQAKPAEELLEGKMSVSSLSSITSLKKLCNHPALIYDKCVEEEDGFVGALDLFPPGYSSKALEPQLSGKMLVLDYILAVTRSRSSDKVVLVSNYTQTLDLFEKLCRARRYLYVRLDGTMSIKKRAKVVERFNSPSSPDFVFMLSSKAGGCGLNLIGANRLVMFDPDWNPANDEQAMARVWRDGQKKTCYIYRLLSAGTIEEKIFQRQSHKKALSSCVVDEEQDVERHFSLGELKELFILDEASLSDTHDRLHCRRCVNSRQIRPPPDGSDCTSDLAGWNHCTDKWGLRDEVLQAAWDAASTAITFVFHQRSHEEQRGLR

[6] = target: T3, Endoribonuclease toxin MazF (Escherichia coli K-12, UniProt P0AE70); assay: MazF toxin RNase activators, dose response, biochemical, fluorescence, single-stranded RNA substrate, uHTS hits (AID 588481); format: functional
T3 sequence (P0AE70 whole entry): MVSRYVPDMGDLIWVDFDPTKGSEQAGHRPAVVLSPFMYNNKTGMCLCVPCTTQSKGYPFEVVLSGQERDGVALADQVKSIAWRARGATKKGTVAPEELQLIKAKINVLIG

[7] = target: T3, Endoribonuclease toxin MazF; assay: fluorescent RNA oligo signal without MazF, dose response, counter-screen for MazEF activator project, biochemical, fluorescence, single-stranded RNase substrate (AID 588502); format: functional
Aminopeptidase N = target: T4, Aminopeptidase N (Plasmodium falciparum FcB1/Columbia, UniProt O96935); assay: P. falciparum M1AAP inhibitors, biochemical, fluorogenic H-Leu-NHMec substrate, 1536-well (AID 1445); set-up: species or system Plasmodium falciparum 3D7, 3D7
T4 sequence (O96935 whole entry): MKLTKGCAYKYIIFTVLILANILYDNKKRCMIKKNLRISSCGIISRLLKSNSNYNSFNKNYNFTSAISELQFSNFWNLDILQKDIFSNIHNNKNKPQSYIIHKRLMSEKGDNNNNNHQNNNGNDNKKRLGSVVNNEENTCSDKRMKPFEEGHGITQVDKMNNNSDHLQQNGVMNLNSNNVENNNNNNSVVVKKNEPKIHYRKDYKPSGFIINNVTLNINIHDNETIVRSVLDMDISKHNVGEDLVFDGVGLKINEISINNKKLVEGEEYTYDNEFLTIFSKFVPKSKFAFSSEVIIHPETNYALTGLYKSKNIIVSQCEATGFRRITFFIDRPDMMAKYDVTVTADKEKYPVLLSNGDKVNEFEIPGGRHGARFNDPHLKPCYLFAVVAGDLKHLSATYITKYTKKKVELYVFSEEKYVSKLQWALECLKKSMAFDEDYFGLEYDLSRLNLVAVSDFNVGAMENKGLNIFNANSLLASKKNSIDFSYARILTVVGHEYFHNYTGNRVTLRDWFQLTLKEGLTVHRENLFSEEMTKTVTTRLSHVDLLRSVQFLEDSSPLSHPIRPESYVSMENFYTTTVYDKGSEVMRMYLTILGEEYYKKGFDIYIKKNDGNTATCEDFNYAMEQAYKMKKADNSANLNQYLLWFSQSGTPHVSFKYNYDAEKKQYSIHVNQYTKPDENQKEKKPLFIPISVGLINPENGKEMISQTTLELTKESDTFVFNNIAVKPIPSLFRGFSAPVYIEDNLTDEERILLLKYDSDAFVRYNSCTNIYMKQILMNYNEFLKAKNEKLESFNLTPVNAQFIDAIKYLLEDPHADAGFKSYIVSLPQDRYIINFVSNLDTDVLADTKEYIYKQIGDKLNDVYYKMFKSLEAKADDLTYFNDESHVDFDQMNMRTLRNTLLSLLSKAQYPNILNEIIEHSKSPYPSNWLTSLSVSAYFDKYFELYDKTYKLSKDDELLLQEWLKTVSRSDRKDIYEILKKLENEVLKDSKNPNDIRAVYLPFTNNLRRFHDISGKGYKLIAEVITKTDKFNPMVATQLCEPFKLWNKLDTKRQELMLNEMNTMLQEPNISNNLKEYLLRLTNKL

[8] = inhibitors of Vif binding to APOBEC3G peptide, primary screen, biochemical, TR-FRET, GST-Vif 1-94, biotin-A3G peptide, dose response retest (AID 1117319); format: functional;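 further: TR-FRET signal of purified GST-Vif binding a biotinylated A3G peptide; inhibitors lower the FRET signal by blocking Vif and A3G binding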
[9] = target: T5, RNA-binding protein pos-1 (Caenorhabditis elegans, UniProt G5EF15); assay: inhibitors of POS-1/mex-3 RNA binding, dose response, biochemical, fluorescence polarization (AID 1964);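 further: purified POS-1 fused to maltose binding protein made in E. coli; potency of compounds blocking POS-1 binding to fluorescent RNA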
T5 sequence (G5EF15 whole entry): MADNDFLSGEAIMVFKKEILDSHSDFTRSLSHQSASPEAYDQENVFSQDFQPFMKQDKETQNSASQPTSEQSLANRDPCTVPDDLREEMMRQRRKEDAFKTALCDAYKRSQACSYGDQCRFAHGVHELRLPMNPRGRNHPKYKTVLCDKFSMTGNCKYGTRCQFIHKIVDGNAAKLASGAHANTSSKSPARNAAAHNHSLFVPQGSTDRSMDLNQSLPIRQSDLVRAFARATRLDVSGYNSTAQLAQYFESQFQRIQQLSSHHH

[10] = target: T6, Zinc finger protein mex-5 (Caenorhabditis elegans, UniProt Q9XUB2); assay: MEX-5/TCR-2 RNA interaction inhibitors, dose response, biochemical, C. elegans, fluorescence polarization (AID 1960)
T6 sequence (Q9XUB2 whole entry): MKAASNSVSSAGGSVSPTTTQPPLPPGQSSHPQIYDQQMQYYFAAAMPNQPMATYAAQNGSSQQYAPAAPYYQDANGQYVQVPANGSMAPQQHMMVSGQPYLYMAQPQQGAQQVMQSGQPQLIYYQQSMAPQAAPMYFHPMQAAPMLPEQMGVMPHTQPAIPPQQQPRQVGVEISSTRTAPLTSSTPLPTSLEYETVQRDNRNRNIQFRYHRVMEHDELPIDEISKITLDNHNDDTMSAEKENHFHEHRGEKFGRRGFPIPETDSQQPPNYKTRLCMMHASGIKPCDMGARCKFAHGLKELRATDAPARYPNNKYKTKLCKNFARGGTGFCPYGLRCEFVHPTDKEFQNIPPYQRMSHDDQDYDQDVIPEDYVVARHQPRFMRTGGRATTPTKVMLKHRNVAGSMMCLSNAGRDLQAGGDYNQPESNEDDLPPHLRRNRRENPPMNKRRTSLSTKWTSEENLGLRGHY

Genome polyprotein = Genome polyprotein (dengue virus type 2, UniProt P29990); assay: Dengue-2 NS5 methyltransferase inhibitors, primary screen, biochemical, confirmation dose response (AID 588689); format: functional
[11] = target: T7, Carboxy-terminal domain RNA polymerase II polypeptide A small phosphatase 1 (Homo sapiens, UniProt Q9GZU7); assay: inhibitors of CTDSP1, concentration-response testing, biochemical assay, absorbance-based, actives from ultra-high-throughput screening (AID 540297); format: functional
T7 sequence (Q9GZU7 whole entry): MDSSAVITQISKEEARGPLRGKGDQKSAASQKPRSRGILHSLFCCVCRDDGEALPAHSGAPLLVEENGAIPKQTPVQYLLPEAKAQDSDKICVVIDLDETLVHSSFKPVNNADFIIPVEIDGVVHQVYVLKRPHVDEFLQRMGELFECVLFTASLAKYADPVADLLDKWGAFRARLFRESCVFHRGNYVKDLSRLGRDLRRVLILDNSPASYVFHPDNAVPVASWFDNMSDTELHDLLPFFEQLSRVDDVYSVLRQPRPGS

Sequence of Genome polyprotein (P29990 2492-3391 limits assumed): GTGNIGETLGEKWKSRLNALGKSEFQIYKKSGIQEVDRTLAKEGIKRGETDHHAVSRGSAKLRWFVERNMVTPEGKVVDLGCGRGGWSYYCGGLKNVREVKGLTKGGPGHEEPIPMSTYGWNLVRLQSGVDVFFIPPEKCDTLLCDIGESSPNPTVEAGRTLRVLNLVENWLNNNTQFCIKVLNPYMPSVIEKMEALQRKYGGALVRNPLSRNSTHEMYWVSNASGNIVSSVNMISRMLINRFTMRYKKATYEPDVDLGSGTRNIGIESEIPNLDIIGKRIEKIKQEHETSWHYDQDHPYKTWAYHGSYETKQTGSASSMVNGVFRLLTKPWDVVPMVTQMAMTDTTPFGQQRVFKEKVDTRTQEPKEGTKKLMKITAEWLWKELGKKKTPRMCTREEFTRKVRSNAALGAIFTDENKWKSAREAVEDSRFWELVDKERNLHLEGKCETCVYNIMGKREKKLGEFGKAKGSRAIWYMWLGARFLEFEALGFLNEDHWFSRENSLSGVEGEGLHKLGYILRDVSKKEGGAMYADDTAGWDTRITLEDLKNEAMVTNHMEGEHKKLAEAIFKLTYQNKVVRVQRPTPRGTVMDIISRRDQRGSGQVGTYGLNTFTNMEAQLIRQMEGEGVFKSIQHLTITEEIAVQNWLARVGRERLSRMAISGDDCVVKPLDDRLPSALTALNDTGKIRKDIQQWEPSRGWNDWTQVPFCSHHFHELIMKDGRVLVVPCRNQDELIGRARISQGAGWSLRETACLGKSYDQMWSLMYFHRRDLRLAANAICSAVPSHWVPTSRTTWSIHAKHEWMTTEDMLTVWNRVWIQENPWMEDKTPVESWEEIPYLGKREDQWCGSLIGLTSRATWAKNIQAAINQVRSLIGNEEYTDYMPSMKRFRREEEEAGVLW

With `O=C(Nc1nc(-c2ccccn2)cs1)c1ncc(Cl)c(Cl)c1Cl` the EC50 (Streptococcus) was 1.64 µM (active), the EC50 [1] was 0.39 µM (active) and the AC50 [2] was 3.55 µM (active).

With `Clc1ccc(OCCOCCNCc2ccccc2)cc1Cl` the IC50 [3] was 149 µM (active) and the CC50 [4] was 91.9 µM (active).

In the case of `OC1CCCN(Cc2c3ccccc3cc3ccccc23)C1` (stereo not given), the AC50 [5] is reported as 4.09 µM (active).

For `COc1cc2nc3c(O)n(CCN4CCCCC4)cnc-3c2cc1OC`, the AC50 [5] was 36.3 µM (active).

In the case of `NC(=O)c1ccc(-n2nnnc2SCC(=O)Nc2ccccc2F)cc1`, the EC50 [6] is reported as > 99 µM (inactive) and the EC50 [7] is reported as > 99 µM (inactive).

In the case of `CCCCc1cc(=O)oc2c(CN(C)C)c(O)ccc12`, the IC50 (Aminopeptidase N) is reported as 30.2 µM (active).

For `CC(C)C(NC(N)=O)C(=O)NC1CCCCC1` (stereo not given), the IC50 [8] was > 100 µM (active).

For `Cn1c(C(=O)NCCCN2CCOCC2)cc2c(=O)n(C)c3ccccc3c21`, the EC50 [9] was > 300 µM (not active), the AC50 [5] was 26.1 µM (active) and the EC50 [10] was > 300 µM (not active).

In the case of `O=C1C(=Cc2cccn2-c2ccc(O)cc2)C(=O)c2ccccc21`, the IC50 (Genome polyprotein) is reported as 10.1 µM (active), the EC50 [6] is reported as > 99 µM (inactive) and the EC50 [7] is reported as 50.3 µM (inactive).

In the case of `Cc1ccc(C=C2C(=O)c3ccccc3C2=O)o1`, the EC50 [6] is reported as > 99 µM (inactive), the EC50 [7] is reported as 85.2 µM (inactive) and the IC50 [11] is reported as 6.25 µM (active).
